Laboratory results reported in patent publication US7683092B2, “Crystalline forms of antidiabetic compounds” (Merck Sharp & Dohme Corp., priority 2005, dated 2010).

Assays:
[1] = Thermodynamic stability of crystal forms; details: among free acid crystal forms of Compound II
[2] = Hygroscopicity of the crystalline form; type: physicochemical; details: solid crystalline form

| SMILES | thermodynamic stability of crystal form [1] | thermodynamic stability of crystal form ([1]; listed as Form C free acid) | hygroscopicity [2] |
| --- | --- | --- | --- |
| CC[C@@H](Oc1cccc(Cn2c(C)c(C(=O)c3ccc(Cl)cc3)c3ccc(OC(F)(F)F)cc32)c1)C(=O)O [Acid Form C, (2R)-2-{3-[[3-(4-chlorobenzoyl)-2-methyl-6-(trifluoromethoxy)-1H-indol-1-yl]methyl]phenoxy}butyric acid] | thermodynamically stable | most thermodynamically stable acid form |  |
| CC[C@@H](Oc1cccc(-n2c(C)c(C(=O)c3ccc(OC)cc3)c3ccc(OC(F)(F)F)cc32)c1)C(=O)O [crystalline dihydrate, (2R)-2-{3-[3-(4-methoxybenzoyl)-2-methyl-6-(trifluoromethoxy)-1H-indol-1-yl]phenoxy}butanoic acid] |  |  | non-hygroscopic |
